Assay results from US7476753B2, “3-aryl-2-cyano-3-hydroxy-acrylic acid derivatives” (Ciba Specialty Chemicals Corporation, priority 2003, dated 2009).
≈ marks a conversion by molar mass, not a printed value. Like-named read-outs stand apart in the source and are kept apart here. Values belong to the compound of their own block, whether it stands above or below them.

Columns and labels:
S. mutans ATCC33402 = test: MIC vs. oral germs, broth dilution method; assay type: cell-based, Streptococcus mutans; conditions: for MIC: Streptococcus mutans, read-out: MHK (MIC) S. mutans ATCC33402
Source text: (§1) b) Determination of MIC vs. different oral germs in the broth dilution method • Medium: Thioglycolate Bouillon with Hemin and Menadion Columbia Bouillon with Hemin and Menadion für P. gingivalis und P. nigrescens • diluent: the corresponding amount of the substances was pippeted directly • Examples of Test organisms: • Actinobacillus actinomycetemcomitans ATCC43718 • Streptococcus gordonii ATCC10558 • Streptococcus mutans ATCC33402 • Actinomyces viscosus ATCC43146 • Fusobacterium nucleatum subsp. polymorphum ATCC1095 • Porphyromonas gingivalis ATCC3277 • Prevotella nigrescens ATCC33563 • Incubation: 7-10 days at 37° C. under anaerobic conditions, resp. 24 h aerobically with 10% CO2 for Streptococci und A. actinomycetemcomitans • Test solution: Stock solutions in ethanol with 1500 ppm (w/w) are used from all test substances
(§2) Bacteria are taken from blood agar plates with cotton swabs and a suitable O.D. is adjusted in the corresponding medium (McFarland 0.5). This solution is used for F. nucleatum and P. nigrescens in undiluted state, for the other strains a dilution of 1:20 is used. To each 2 ml of active ingredient containing solution 0.1 ml of the bacteria culture is added and incubated as described above.

P. nigrescens ATCC33563 = test: MIC vs. oral germs, broth dilution method; assay type: cell-based, Prevotella nigrescens; conditions: for MIC: Prevotella nigrescens
Source text: as §1, §2

[1] = test system: A. actinomycetemcomitans ATCC43718; test: MIC vs. oral germs, broth dilution method; assay type: cell-based, Actinobacillus actinomycetemcomitans; conditions: for MIC: Aggregatibacter actinomycetemcomitans, read-out: MHK (MIC) A. actinomycetemcomitans ATCC43718
Source text: as §1, §2

[2] = test system: F. nucleatum subsp. polymorphum ATCC10953; test: MIC vs. oral germs, broth dilution method; assay type: cell-based, Fusobacterium nucleatum subsp. polymorphum; conditions: for MIC: Fusobacterium nucleatum
Source text: as §1, §2

S. gordonii ATCC10558 = test: MIC vs. oral germs, broth dilution method; assay type: cell-based, Streptococcus gordonii; conditions: for MIC: Streptococcus gordonii, read-out: MHK (MIC) S. gordonii ATCC10558
Source text: as §1, §2

[3] = test system: Corynebacterium xerosis ATCC 373; test: MIC, Agar incorporation test; assay type: cell-based
Description: (§3) 0.3 ml of each dilution step is mixed with 15 ml of nutrient medium while the latter is still liquid. After the nutrient medium has solidified, 10 μl of each of the following organism dilutions of the test strains in 0.85% NaCl solution are spotted onto the agar medium.
(§4) The plates are incubated during 24 hours at 37° C. and then the highest dilution (lowest concentration) of the test substance at which growth is just no longer discernible (corresponds to the MIC) is determined.

[4] = test system: Propionibacterium acnes ATCC 6919; test: MIC, Agar incorporation test; assay type: cell-based
Description: as §3, §4

[5] = test system: Staphylococcus aureus ATCC 6538; test: MIC, Agar incorporation test; assay type: cell-based
Description: as §3, §4

[6] = test system: Pseudomonas aeruginosa ATCC 15442; test: MIC, Agar incorporation test; assay type: cell-based
Description: as §3, §4

[7] = test system: Escherischia coli ATCC 10536; test: MIC, Agar incorporation test; assay type: cell-based; conditions: 24 hours at 37° C.
Description: as §3, §4

[8] = test system: Staphylococcus epidermidis ATCC 12228; test: MIC, Agar incorporation test; assay type: cell-based
Description: as §3, §4

P. gingivalis ATCC3277 = test: MIC vs. oral germs, broth dilution method; assay type: cell-based, Porphyromonas gingivalis; conditions: for MIC: Porphyromonas gingivalis
Source text: as §1, §2

[9] = test system: Candida albicans ATCC 10231; test: MIC, Agar incorporation test; assay type: cell-based; conditions: Sabouraud 4% glucose agar, 3 days at 28° C.
Description: 0.3 ml of each dilution step is mixed with 15 ml of nutrient medium while the latter is still liquid. After the nutrient medium has solidified, 10 μl of each of the following organism dilutions of the test strains in 0.85% NaCl solution are spotted onto the agar medium. […]

A. viscosus ATCC43146 = test: MIC vs. oral germs, broth dilution method; assay type: cell-based, Actinomyces viscosus; conditions: for MIC: Actinomyces viscosus
Source text: as §1, §2

[10] = test system: Staphylococcus aureus ATCC 6538; test: Automatic MIC-Screening, broth dilution method; assay type: cell-based; conditions: micro titer plates, 37° C., 24 hours, tested 120 to 3.75 μg/ml
Description: (§5) Determination of the Minimum Inhibitory Concentration (MIC Value)
(§6) 8 μl of each dilution step is mixed with 192 μl of nutrient medium in micro titer plates. The plates are incubated at 37° C. for 24 hours and then the highest dilution (lowest concentration) of the test substance at which growth is just no longer discernible is determined (corresponds to the MIC).

[11] = test system: Actinomyces viscosus ATCC 43146; test: Automatic MIC-Screening, broth dilution method; assay type: cell-based; conditions: micro titer plates, 37° C., 24 hours, tested 120 to 3.75 μg/ml
Description: as §5, §6

[12] = test system: Corynebacterium sp. (Corynebacterium xerosis ATCC 373 oder C. minutissimum ATCC 23348); test: Automatic MIC-Screening, broth dilution method; assay type: cell-based; conditions: micro titer plates, 37° C., 24 hours, tested 120 to 3.75 μg/ml
Description: as §5, §6

[13] = test system: Aspergillus niger ATCC 6275; test: MIC, Agar incorporation test; assay type: cell-based
Description: as §3, §4

[14] = test system: C. minutissimum ATCC 23348; test: MIC, Agar incorporation test; assay type: cell-based; conditions: 24 hours at 37° C.
Description: as §3, §4

[15] = test system: Proteus vulgaris ATCC 6896; test: MIC, Agar incorporation test; assay type: cell-based; conditions: 24 hours at 37° C.
Description: as §3, §4

[16] = test system: Klebsiella pneumoniae ATCC 4352; test: MIC, Agar incorporation test; assay type: cell-based; conditions: 24 hours at 37° C.
Description: as §3, §4

[17] = test system: Salmonella choleraesuis ATCC 9184; test: MIC, Agar incorporation test; assay type: cell-based; conditions: 24 hours at 37° C.
[18] = broth dilution, 24 h aerobically with 10% CO2, 37° C.
[19] = broth dilution, Columbia Bouillon with Hemin and Menadion, 7-10 days at 37° C., anaerobic
[20] = broth dilution, 7-10 days at 37° C., anaerobic

SMILES: CCCCC(CC)COC(=O)C(C#N)=C(O)c1ccc(-c2ccccc2)cc1 (stereo not shown) [(101e), 3-biphenyl-4-yl-2-cyano-3-hydroxy-acrylic acid 2-ethyl-hexylester]
- MIC (S. mutans ATCC33402; ATCC33402, 24 h): < 0.94 µg/mL
- MIC (P. nigrescens ATCC33563; ATCC33563, read-out: MHK (MIC) P. nigrescens ATCC33563): > 15 µg/mL
- MIC ([1]; ATCC43718, 24 h): > 15 µg/mL
- MIC ([2]; ATCC10953, read-out: MHK (MIC) F. nucleatum subsp. polymorphum ATCC10953): > 15 µg/mL
- MIC (S. gordonii ATCC10558; ATCC10558, 24 h): < 0.94 µg/mL
- MIC ([3]; Corynebacterium xerosis, ATCC373, 24 hours at 37° C.): 1.9 µg/mL (≈ 5.03 µM)
- MIC ([4]; Cutibacterium acnes, ATCC6919, 24 hours at 37° C.): 0.94 µg/mL (≈ 2.49 µM)
- MIC ([5]; Staphylococcus aureus, ATCC6538, 24 hours at 37° C.): 1.9 µg/mL (≈ 5.03 µM)
- MIC ([6]; Pseudomonas aeruginosa, ATCC15442, 24 hours at 37° C.): > 500 µg/mL
- MIC [7]: > 500 µg/mL
- MIC ([8]; Staphylococcus epidermidis, ATCC12228, 24 hours at 37° C.): 1.9 µg/mL (≈ 5.03 µM)
- MIC (P. gingivalis ATCC3277; ATCC3277, read-out: MHK (MIC) P. gingivalis ATCC3277): 15 µg/mL (≈ 39.7 µM)
- MIC ([9]; Candida albicans, ATCC10231, 72 h): > 500 µg/mL
- MIC (A. viscosus ATCC43146; ATCC43146, read-out: MHK (MIC) A. viscosus ATCC43146): < 0.94 µg/mL

- MIC (S. mutans ATCC33402; ATCC33402, broth dilution, 24 h aerobically with 10% CO2, 37° C.): > 15 µg/mL
- MIC (P. nigrescens ATCC33563; ATCC33563, broth dilution, Columbia Bouillon with Hemin and Menadion, 7-10 days at 37° C., anaerobic, read-out: MHK (MIC) P. nigrescens ATCC33563): > 15 µg/mL
- MIC ([1]; ATCC43718, broth dilution, 24 h aerobically with 10% CO2, 37° C.): > 15 µg/mL
- MIC ([2]; ATCC10953, broth dilution, 7-10 days at 37° C., anaerobic, read-out: MHK (MIC) F. nucleatum subsp. polymorphum ATCC10953): ≥ 15 µg/mL
- MIK (MIC) S. aureus [10]: <3.75 μγ/ml
- MIK (MIC) A. viscosus [11]: <3.75 μγ/ml
- MIK (MIC) Corynebacterium sp. [12]: >120 μγ/ml
- MIC (S. gordonii ATCC10558; ATCC10558, broth dilution, 24 h aerobically with 10% CO2, 37° C.): 15 µg/mL (≈ 25 µM)
- MIC (P. gingivalis ATCC3277; ATCC3277, broth dilution, Columbia Bouillon with Hemin and Menadion, 7-10 days at 37° C., anaerobic, read-out: MHK (MIC) P. gingivalis ATCC3277): > 15 µg/mL
- MIC (A. viscosus ATCC43146; ATCC43146, broth dilution, 7-10 days at 37° C., anaerobic, read-out: MHK (MIC) A. viscosus ATCC43146): 7.5 µg/mL (≈ 12.5 µM)
SMILES: CCCCCCCCOC(=O)/C(C#N)=C(\O)c1ccc(-c2ccc(/C(O)=C(\C#N)C(=O)OCCCCCCCC)cc2)cc1 [(102a)]

SMILES: CCCCC(CC)COC(=O)C(C#N)=C(O)c1ccc(-c2ccc(C(O)=C(C#N)C(=O)OCC(CC)CCCC)cc2)cc1 (stereo not shown) [(102b)]
- MHK (MIC) S. mutans ATCC33402 (S. mutans ATCC33402; [18]): >15 ppm
- MHK (MIC) P. nigrescens ATCC33563 (P. nigrescens ATCC33563; [19]): >15 ppm
- MHK (MIC) A. actinomycetemcomitans ATCC43718 [1, 18]: >15 ppm
- MHK (MIC) F. nucleatum subsp. polymorphum ATCC10953 [2, 20]: >15 ppm
- MHK (MIC) S. gordonii ATCC10558 (S. gordonii ATCC10558; [18]): 15 ppm
- MIC Corynebacterium xerosis ATCC 373 ([3]; 24 hours at 37° C.): <1.56 ppm
- MIC Aspergillus niger ATCC 6275 [13]: >400 ppm
- MIC Propionibacterium acnes ATCC 6919 ([4]; 24 hours at 37° C.): <1.56 ppm
- MIC C. minutissimum ATCC 23348 [14]: 50 ppm
- MIC Staphylococcus aureus ATCC 6538 ([5]; 24 hours at 37° C.): 100 ppm
- MIC Pseudomonas aeruginosa ATCC 15442 ([6]; 24 hours at 37° C.): >400 ppm
- MIC Escherischia coli ATCC 10536 [7]: >400 ppm
- MIC Staphylococcus epidermidis ATCC 12228 ([8]; 24 hours at 37° C.): 25 ppm
- MIC Proteus vulgaris ATCC 6896 [15]: >400 ppm
- MIC Klebsiella pneumoniae ATCC 4352 [16]: >400 ppm
- MHK (MIC) P. gingivalis ATCC3277 (P. gingivalis ATCC3277; [19]): >15 ppm
- MIC Salmonella choleraesuis ATCC 9184 [17]: >400 ppm
- MIC Candida albicans ATCC 10231 [9]: >400 ppm
- MHK (MIC) A. viscosus ATCC43146 (A. viscosus ATCC43146; [20]): 7.5 ppm
